From patent publication US8901114B2, “Oxathiazine derivatives substituted with carbocycles or heterocycles, method for producing same, drugs containing said compounds, and use thereof” (Sanofi, priority 2011, dated 2014)

What follows are compounds tested against human 11β-HSD1 microsome fraction (Homo sapiens, UniProt P28845) (assay: Enzymatic 11beta-HSD1 test (SPA-based detection)). Conditions: human 11β-HSD1 microsomes, [1,2-3H]-cortisone, NADPH, 37° C., 1 hour; read-out: IC50 (nM), Biological activity in nanomolar.
Assay type: biochemical
Protocol: Enzymatic 11beta-HSD1 test:
First of all, 20 μl of the human 11β-HSD1 microsome fraction (0.2 μg of protein), prepared in 50 mM HEPES, 0.1% BSA (w/v), were applied to a plate with 384 wells. The test compounds (0.09 μl) were applied to the assay plate in 100% DMSO. The reaction was started by addition of 20 μl of [1,2-^3H]-cortisone (0.1 μCi/[…]) in assay buffer comprising 25 mM HEPES, 100 mM KCl, 5 mM NaCl, 2 mM MgCl2 and 0.25 mM NADPH. The plate was agitated at 37° C. for 1 hour. At the same time, a stop solution comprising 20 mg/ml SPA-PVT beads, 1.6 mg/ml monoclonal cortisol antibody and 0.01 mM SSR110887 (inhibitor from the Biovitrium patent) in 50 mM HEPES, 1 M NaCl and 1 M KCl was stirred at room temperature. To stop the reaction, 25 μl of the stop solution were added to each well. The plate was agitated gently at room temperature for 1 further hour and then centrifuged at 500 gav for […], in order that the SPA beads could settle out. […] The comparative compound was glycyrrhetinic acid.
Protein and radioactive substrate were dispensed with a Biomek FX unit (Beckman Coulter) for handling liquids. The test compounds were added with a Cybi-Well equipped with a 90 nl pin tool (CyBio).
Lit.: Solly S, Mundt S S, Zokian H J, Juy-Fang Ding G, Hermanowski-Vosatka A, Strulovici B and Zheng W. High-throughput screening of 11β-Hydroxysteroid dehydrogenase type 1 in scintillation proximity format.

human 11β-HSD1 microsome fraction, sequence (P28845 whole entry): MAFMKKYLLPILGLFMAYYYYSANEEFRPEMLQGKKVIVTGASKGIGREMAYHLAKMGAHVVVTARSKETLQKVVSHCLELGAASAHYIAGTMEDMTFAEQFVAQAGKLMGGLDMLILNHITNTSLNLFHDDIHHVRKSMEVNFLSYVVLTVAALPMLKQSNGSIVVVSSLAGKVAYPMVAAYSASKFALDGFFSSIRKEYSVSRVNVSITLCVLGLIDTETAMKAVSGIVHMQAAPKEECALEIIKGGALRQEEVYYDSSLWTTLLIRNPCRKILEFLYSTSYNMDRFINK

IC50 | SMILES
20 nM | CC1CC(NC2=NS(=O)(=O)C3CCCCC3O2)CC(C)(C)C1 (stereo not shown) [Example 23, (1,1-Dioxo-4a,5,6,7,8,8a-hexahydro-1H-1lambda6-benzo[1,4,3]oxathiazin-3-yl)-(3,3,5-trimethyl-cyclohexyl)-amine]
121 nM | CC(C)C(NC1=NS(=O)(=O)C2CCCCC2O1)c1cccs1 (stereo not shown) [Example 25, (1,1-Dioxo-4a,5,6,7,8,8a-hexahydro-1H-1lambda6-benzo[1,4,3]oxathiazin-3-yl)-(2-methyl-1-thiophen-2-yl-propyl)-amine]
16 nM | C[C@@H]1[C@@H](NC2=NS(=O)(=O)C3CCCCC3O2)C[C@H]2C[C@@H]1C2(C)C (stereo partly drawn) [Example 56, (1,1-Dioxo-4a,5,6,7,8,8a-hexahydro-1H-1lambda6-benzo[1,4,3]oxathiazin-3-yl)-((1S,2S,3S,5R)-2,6,6-trimethyl-bicyclo[3.1.1]hept-3-yl)-amine]
59 nM | CC1(C)[C@@H]2CC[C@@]1(C)[C@@H](NC1=NS(=O)(=O)C3CCCCC3O1)C2 (stereo partly drawn) [Example 36, (1,1-Dioxo-4a,5,6,7,8,8a-hexahydro-1H-1lambda6-benzo[1,4,3]oxathiazin-3-yl)-((1R,2S,4R)-1,7,7-trimethyl-bicyclo[2.2.1]hept-2-yl)-amine]
29 nM | O=S1(=O)N=C(NC2CC[C@H]3CC[C@@H]2C3)OC2CCCCC21 (stereo partly drawn) [Example 54, (1R,5R)-Bicyclo[3.2.1]oct-2-yl-(1,1-dioxo-4a,5,6,7,8,8a-hexahydro-1H-1lambda6-benzo[1,4,3]oxathiazin-3-yl)-amine]
8 nM | CC12CCC(NC3=NS(=O)(=O)[C@H]4CCCC[C@H]4O3)(CC1)CC2 [Example 5, ((4aR,8aS)-1,1-Dioxo-4a,5,6,7,8,8a-hexahydro-1H-1lambda6-benzo[1,4,3]oxathiazin-3-yl)-(4-methyl-bicyclo[2.2.2]oct-1-yl)-amine]
440 nM | O=S1(=O)N=C(NC(C2CC2)C2CC2)OC2CCCCC21 (stereo not shown) [Example 39, Dicyclopropylmethyl-(1,1-dioxo-4a,5,6,7,8,8a-hexahydro-1H-1lambda6-benzo[1,4,3]oxathiazin-3-yl)-amine]
275 nM | C[C@@H](NC1=NS(=O)(=O)C2CCCCC2O1)C1CCCCC1 (stereo partly drawn) [Example 29, ((R)-1-Cyclohexyl-ethyl)-(1,1-dioxo-4a,5,6,7,8,8a-hexahydro-1H-1lambda6-benzo[1,4,3]oxathiazin-3-yl)-amine]
5 nM | CC12CCC(NC3=NS(=O)(=O)[C@@H]4CCCC[C@@H]4O3)(CC1)CC2 [Example 13, ((4aS,8aR)-1,1-Dioxo-4a,5,6,7,8,8a-hexahydro-1H-1lambda6-benzo[1,4,3]oxathiazin-3-yl)-(4-methyl-bicyclo[2.2.2]oct-1-yl)-amine]
74 nM | O=S1(=O)N=C(NC23CCC(CC2)CC3)OC2CCCC21 (stereo not shown) [Example 72, Bicyclo[2.2.2]oct-1-yl-(1,1-dioxo-1,4a,5,6,7,7a-hexahydro-1lambda6-cyclopenta[1,4,3]oxathiazin-3-yl)-amine]
497 nM | CC1(C)C2CCC1C(NC1=NS(=O)(=O)C3CCCCC3O1)C2O (stereo not shown) [Example 41, 3-(1,1-Dioxo-4a,5,6,7,8,8a-hexahydro-1H-1lambda6-benzo[1,4,3]oxathiazin-3-ylamino)-7,7-dimethyl-bicyclo[2.2.1]heptan-2-ol]
355 nM | O=S1(=O)N=C(N[C@H]2CC[C@H](O)CC2)OC2CCCCC21 (stereo partly shown) [Example 81, 4-(1,1-Dioxo-4a,5,6,7,8,8a-hexahydro-1H-1lambda6-benzo[1,4,3]oxathiazin-3-ylamino)-cyclohexanol]
49 nM | CC12CCCCC1S(=O)(=O)N=C(NC1CCCCC1)O2 (stereo not shown) [Example 89, Cyclohexyl-(4a-methyl-1,1-dioxo-4a,5,6,7,8,8a-hexahydro-1H-1lambda6-benzo[1,4,3]oxathiazin-3-yl)-amine]
670 nM | CC(C)CC(CC(C)C)NC1=NS(=O)(=O)C2CCCCC2O1 (stereo not shown) [Example 55, (1,1-Dioxo-4a,5,6,7,8,8a-hexahydro-1H-1lambda6-benzo[1,4,3]oxathiazin-3-yl)-(1-isobutyl-3-methyl-butyl)-amine]
93 nM | O=S1(=O)N=C(NC2CCSc3ccccc32)OC2CCCCC21 (stereo not shown) [Example 48, (1,1-Dioxo-4a,5,6,7,8,8a-hexahydro-1H-1lambda6-benzo[1,4,3]oxathiazin-3-yl)-thiochroman-4-yl-amine]
236 nM | CC1(C)[C@@H]2CC[C@@]1(C)[C@H](NC1=NS(=O)(=O)C3CCCCC3O1)C2 (single isomer, unassigned) [Example 14]
308 nM | O=S1(=O)N=C(NN2CC3CCCC3C2)OC2CCCCC21 (stereo not shown) [Example 65, (1,1-Dioxo-4a,5,6,7,8,8a-hexahydro-1H-1lambda6-benzo[1,4,3]oxathiazin-3-yl)-(hexahydro-cyclopenta[c]pyrrol-2-yl)-amine]
570 nM | CC1(C)[C@@H]2CC[C@@]1(C)[C@H](O)[C@H]2NC1=NS(=O)(=O)C2CCCCC2O1 (stereo partly drawn) [Example 38, (1R,2S,3S,4S)-3-(1,1-Dioxo-4a,5,6,7,8,8a-hexahydro-1H-1lambda6-benzo[1,4,3]oxathiazin-3-ylamino)-1,7,7-trimethyl-bicyclo[2.2.1]heptan-2-ol]
658 nM | O=S1(=O)N=C(N[C@@H]2CCCC[C@H]2CO)O[C@H]2CCCC[C@H]21 [Example 59, [(1R,2R)-2-((4aS,8aR)-1,1-Dioxo-4a,5,6,7,8,8a-hexahydro-1H-1lambda6-benzo[1,4,3]oxathiazin-3-ylamino)-cyclohexyl]-methanol]
38 nM | CC12CCC(NC3=NS(=O)(=O)C4CCCC4O3)(CC1)CC2 (stereo not shown) [Example 64, (1,1-Dioxo-1,4a,5,6,7,7a-hexahydro-1lambda6-cyclopenta[1,4,3]oxathiazin-3-yl)-(4-methyl-bicyclo[2.2.2]oct-1-yl)-amine]
165 nM | O=S1(=O)N=C(NCC2CCCCO2)OC2CCCCC21 (stereo not shown) [Example 47, (1,1-Dioxo-4a,5,6,7,8,8a-hexahydro-1H-1lambda6-benzo[1,4,3]oxathiazin-3-yl)-(tetrahydro-pyran-2-ylmethyl)-amine]
148 nM | O=S1(=O)N=C(NN2CCCCCC2)OC2CCCCC21 (stereo not shown) [Example 66, Azepan-1-yl-(1,1-dioxo-4a,5,6,7,8,8a-hexahydro-1H-1lambda6-benzo[1,4,3]oxathiazin-3-yl)-amine]
54 nM | CC(C)[C@]12CC(NC3=NS(=O)(=O)C4CCCCC4O3)[C@H](C)[C@H]1C2 (stereo partly drawn) [Example 53, (1,1-Dioxo-4a,5,6,7,8,8a-hexahydro-1H-1lambda6-benzo[1,4,3]oxathiazin-3-yl)-((1S,4R,5R)-1-isopropyl-4-methyl-bicyclo[3.1.0]hex-3-yl)-amine]
43 nM | O=S1(=O)N=C(N[C@@H]2C[C@H]3CC[C@@H]2C3)OC2CCCCC21 (stereo partly drawn) [Example 62, (1R,2R,4S)-Bicyclo[2.2.1]hept-2-yl-((5S,6R)-1,1-dioxo-4a,5,6,7,8,8a-hexahydro-1H-1lambda6-benzo[1,4,3]oxathiazin-3-yl)-amine]
5 nM | CC1(C)[C@@H]2CC[C@@]1(C)[C@H](NC1=NS(=O)(=O)C3CCCCC3O1)C2 (single isomer, unassigned) [Example 9]
